In PubChem BioAssay AID179 (DTP/NCI, 2004):
“And” between values parts separate entries of the source, which are not always exact repeats. Equal entries are not always repeated. The source made the active and inactive calls.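 How the source made its calls: active means compounds giving half or more protection of infected cells from virus-caused growth loss, again on retest; inactive means the rest.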 Where a SMILES comes first, the peptide text is derived from it. The star is where a group is joined. Cbz = O=C(OCc1ccccc1)*; Boc = CC(C)(C)OC(=O)*; Bn = c1ccc(C*)cc1

Test system: CEM cells HIV-1 protection, formazan growth assay
Test: NCI AIDS Antiviral Assay
Settings: for IC50: measured here: growth of uninfected CEM cells
How it was run: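 Five concentrations of each compound were applied to infected and uninfected human CEM cells. Protection from HIV-1 was judged from growth measured with a soluble formazan assay.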

Compound	outcome	EC50	IC50
COC1NC(=O)Oc2c(F)cccc21 (centres undefined)	inactive	–	–
CN=C1CN2OC(=O)N(C)C2(c2ccccc2)c2cc(Cl)ccc2N1 (centres undefined)	–	> 112 µM	41.7 µM
CC(C)/C(Cl)=N\OC(=O)Nc1cccc(F)c1	–	> 200 µM	9.77 µM
CC(C)=CCOC(=O)C(C)=[N+]=[N-]	–	> 200 µM	170 µM
O=c1c2cccc3cccc(c4n1CCN=4)c32	–	> 200 µM	20.9 µM
CCOC(=O)/C(C1=NCCN1C)=C(\O)c1ccccc1	–	> 912 µM	> 912 µM
c1ccc(CSC(SCc2ccccc2)c2ccccc2)cc1	–	> 200 µM	> 200 µM
O=C(O)c1cccc2c(=O)c3ccccc3oc12	–	> 977 µM	209 µM
CCOC(=O)C(C(=O)c1ccccc1)C(=O)c1ccccc1	–	> 45.7 µM	> 45.7 µM
CC(C)CCCC(C)[C@H]1CCC2[C@@H]1CC[C@@H]1[C@@]3(C)CC[C@H](CCC=C(c4cc(Cl)c(OCC(=O)O)c(C(=O)O)c4)c4cc(Cl)c(OCC(=O)O)c(C(=O)O)c4)C[C@@H]3CC[C@@]21C (some centres undefined)	–	> 200 µM	1.7 µM
CC1CC2OC(=N)C1(C#N)C2(C#N)C#N (centres undefined)	–	> 200 µM	10.5 µM
C[C@@H](c1ccccc1)N1C[C@@H](c2ccc3c(c2)OCO3)[C@@H]2C(=O)CCC[C@@H]21	–	> 200 µM	112 µM
O=C1NC(=O)C(Cc2cccc(OCc3ccccc3)c2)C(=O)N1	–	> 200 µM	> 200 µM
Cn1c(COC(=O)Nc2ccccc2)c(COC(=O)Nc2ccccc2)c2ccc3ccccc3c21	–	> 200 µM	0.339 µM
CC(C(N)C(=O)NC(C(=O)O)C1OC(c2c[nH]c(=O)[nH]c2=O)C(O)C1O)C(O)c1ccc(O)cn1 (centres undefined)	inactive	–	–
CC(=O)OC[C@H]1CN(OC(C)=O)C[C@@H](n2cc(C)c(=O)[nH]c2=O)O1	–	> 200 µM	> 200 µM
N#CC(C(=O)CCCC(=O)Nc1ccc(Cl)cc1Cl)c1ccccc1 (centres undefined)	–	> 661 µM	> 661 µM
CNc1ccc(S(=O)Nc2ccccc2)cc1 (centres undefined)	–	> 200 µM	93.3 µM
CC(C)(Sc1cc(C(C)(C)C)c(O)c(C(C)(C)C)c1)Sc1cc(C(C)(C)C)c(O)c(C(C)(C)C)c1	–	> 26.3 µM	> 26.3 µM
COC(=O)N1CC2C3C4CC(C(c5ccccc5)=C4c4ccccc4)C3C21 (centres undefined)	–	> 200 µM	29.5 µM
O=c1[nH]c2cc(F)c(F)cc2nc1Cc1ccccc1	–	> 200 µM	132 µM
Nc1ncc(Cl)c(NCC2(CO)CC(CCc3ccccc3)C2)n1 (centres undefined)	–	> 200 µM	3.24 µM

Compound	outcome	EC50	IC50
O=c1sc(-c2nc3ccccc3[nH]2)c(/N=C/c2ccccc2)n1-c1ccccc1	–	> 2.63 µM	> 2.63 µM
COC(=O)/C(=C\C(=O)c1ccc(Br)cc1)NN=C(c1ccccc1)c1ccccc1	–	> 200 µM	> 200 µM
Cc1nc(-c2cc3c(ccc4ccccc43)oc2=O)cs1	–	> 100 µM	95.5 µM
CCOC(=O)c1sc(SSc2nc(C)c(C(=O)OCC)s2)nc1C	–	> 200 µM	> 200 µM
S=C1NC(c2cccs2)N2C(=S)NC(c3cccs3)N12 (centres undefined)	–	> 200 µM	> 200 µM
COC(=O)CCC(C)C1CCC2C3CCC4CC5CCC4C3(CO5)C(=O)C(Br)C12C (centres undefined)	–	> 10.7 µM	> 10.7 µM
CC(=O)C1(C(=O)C(=[N+]=[N-])S(=O)(=O)c2ccccc2)CC1	–	> 851 µM	8.32 µM
O=C(c1ccccc1)C1C(c2ccccc2)SC(c2ccccc2)CC1(O)c1ccccc1 (centres undefined)	–	> 151 µM	20.9 µM
CCN(CC)CC(=O)Nc1cc(NC(=O)CN(CC)CC)c(C)c(NC(=O)CN(CC)CC)c1	–	> 200 µM	56.2 µM
O=S(=O)(N/N=C1\CC2CCC1C2)c1ccccc1 (centres undefined)	–	> 200 µM	> 200 µM
CC1=Nn2c(nnc2-c2ccc(N)cc2)NC(C)(C)C1	–	> 933 µM	> 933 µM
COc1ccccc1NC(=S)N/N=C/c1cccc(C)n1	–	> 200 µM	2.75 µM
COc1cccc(-c2nnc(N)o2)c1	inactive	–	–
Cc1nn(C(=O)c2ccncc2)c2c1C(c1ccccc1)SC(N)=N2 (centres undefined)	–	28.2 µM	> 100 µM
S=C(N/N=C\c1ccccn1)N/N=C\c1ccccn1	–	> 2 µM	0.813 µM
c1ccc2c3c(ccc2c1)CSCc1ccc2ccccc2c1-3	–	> 200 µM	–
Cn1c(-c2ccccc2)cc(-c2ccc3c(c2)OCO3)c1-c1cccs1	–	> 200 µM	> 200 µM
COc1ccccc1/C=c1\[nH]c(=O)/c(=C/c2ccccc2OC)[nH]c1=O	–	> 28.2 µM	> 28.2 µM
CCOC(=O)c1cc(/C=C/C(C)=C/C(=O)OC)oc1C	–	> 67.6 µM	> 67.6 µM
O=C(O)CCC(NC(=O)c1ccc(OCc2nc3cc(C(F)(F)F)ccc3nc2-c2ccccc2)cc1)C(=O)O (centres undefined)	–	> 200 µM	> 200 µM
COC(=O)c1sc(C(=O)OC)c2c1CS(=O)C2	inactive	–	–
CCCN1CC=C(c2cc(C(=O)OCC)[nH]c2-c2cc(C)no2)C1=O	–	> 200 µM	107 µM

Compound	outcome	EC50	IC50
CCOC(=O)c1cc(C2(OC)CCN(Cc3ccccc3)C2=O)c(-c2cc(C)no2)[nH]1 (centres undefined)	–	> 200 µM	148 µM
CCOC(=O)C(NC(C)=O)(Nc1ccc(F)cc1)C(F)(F)F (centres undefined)	inactive	–	–
O=C(O)[C@@H]1CCCC[C@@H]1C(=O)N(C1CCCCC1)C1CCCCC1	–	> 77.6 µM	> 77.6 µM
Cc1noc(C)c1-n1nc2ccc3nonc3c2n1	–	> 200 µM	> 200 µM
CC(=O)OCC12CC(OC(C)=O)C(C)=CC1O[C@@H]1C(O)[C@@H](O)[C@@]2(C)[C@@]12CO2 (some centres undefined)	–	> 66.1 µM	0.0282 µM
CCOC(=O)C1(Br)CCN(S(=O)(=O)c2ccc(C)cc2)c2ccccc2C1=O (centres undefined)	–	> 200 µM	1.51 µM
O=[N+]([O-])c1ccc(OCn2ncc3ccc([N+](=O)[O-])cc32)cc1	–	> 200 µM	> 200 µM
O=C1CCC2(c3ccc(F)cc3)Nc3ccccc3N12 (centres undefined)	inactive	–	–
CC(C)/C(Cl)=N\OC(=O)Nc1cccc(Cl)c1	–	> 200 µM	5.01 µM
CC(C)(C)OC(=O)NC(Cc1ccc(OCc2ccccc2)cc1)C(=O)NC(CCCCNC(=O)OCc1ccccc1)C(=O)O (centres undefined) (Boc-Tyr(Bn)-Lys(Cbz)-OH; configuration not given here)	–	> 200 µM	75.9 µM
COc1ccc2nc(-c3ccccc3)c(=O)[nH]c2c1	–	> 200 µM	45.7 µM
C=C1C(=O)OC2/C=C(\C)C3OC3/C=C(/C(=O)OC)C(O)C(OC(=O)C3(C)OC3C)C12 (centres undefined)	–	> 120 µM	0.302 µM
CCOC(=O)c1c(SCc2ccccc2)nc2c3ccccc3ccn12	–	> 151 µM	> 151 µM
Cc1cccc(NC(=O)CC(=O)N2N=C(N3c4ccccc4Sc4ccccc43)CC2c2ccccc2)c1 (centres undefined)	–	> 151 µM	> 151 µM
O=C1OC(c2ccccc2)=N/C1=C/C=C/c1ccco1	inactive	–	–
C=CC1CN(C(=O)OCC)N(C(=O)OCC)C1CCc1ccccc1 (centres undefined)	–	> 200 µM	72.4 µM
CCOP(=O)(OCC)C(N)c1ccc(OC)cc1 (centres undefined)	–	> 813 µM	> 813 µM
CCOC(=O)N(C)C1(c2ccccc2)CCN(CCCC(=O)c2ccc(F)cc2)CC1	–	> 200 µM	83.2 µM
CSc1nc2[nH]c(=O)n(O)c(=O)c2n1Cc1ccccc1	–	> 200 µM	3.8 µM
CCOC(=O)NC(=O)c1cn(CCCOC(=O)NCCCCCCNC(=O)OCCCn2cc(C(=O)NC(=O)OCC)c(=O)[nH]c2=O)c(=O)[nH]c1=O	inactive	–	–
O=C1C(CN2CCCC2)CCCC1CN1CCCC1 (centres undefined)	inactive	–	–
CCOC(=O)/C=C(/N=P(c1ccccc1)(c1ccccc1)c1ccccc1)C(F)(F)F	–	> 200 µM	13.8 µM

Compound	outcome	EC50	IC50
O=c1c2c3c(sc2nc2n1N=C(c1ccc(Cl)cc1)CS2)CCCC3	–	> 200 µM	> 200 µM
O=C1/C(=C/c2cccc([N+](=O)[O-])c2)COc2ccccc21	–	> 12.9 µM	1.51 µM
CN(NC(=O)c1cccs1)C1=NCCCCN1	–	> 200 µM	> 200 µM
CC(=O)O[C@@H]1C(=O)O[C@@H]2CO[C@H](c3ccccc3)O[C@H]12	–	> 200 µM	> 200 µM
Cc1cc2c(cc1C)NC(=O)CC(=O)N2	–	> 200 µM	> 200 µM
COC(=O)c1c(C)cccc1CC1Cc2c(C)cccc2C1=O (centres undefined)	–	> 200 µM	41.7 µM
COC(=O)N1[C@H]2Cc3c(OC)c(C)c(OC)c(OC)c3[C@@H]1/C(=C\c1cc(OC)c(OC)c(C)c1OC)N(Cc1ccccc1)C2=O	inactive	–	–
Cc1cc(C)c(S(=O)(=O)Sc2nnnn2-c2ccccc2)c(C)c1	–	> 20 µM	> 20 µM
CC(CS(C)(=O)=O)S(=O)(=O)O (centres undefined)	–	> 200 µM	> 200 µM
CCOC(=O)/C(C#N)=C/c1ccccc1OC	–	> 112 µM	> 112 µM
Clc1ccccc1C(=Nc1ccccc1)C(=Nc1ccccc1)c1ccccc1Cl	–	> 1.74 µM	> 1.74 µM
COc1ccc(NC(=O)CC(=O)N/N=C/c2ccc(N(CCC#N)S(C)(=O)=O)cc2)cc1	–	> 148 µM	> 148 µM
O=C1NC2(O)c3ccccc3C(=O)C2(O)N1c1ccccc1 (centres undefined)	–	> 851 µM	692 µM
CC1(C)CC(=O)C(CC2C(=O)c3ccccc3C2=O)C(=O)C1	–	> 120 µM	> 120 µM
Cn1cnc([N+](=O)[O-])c1Sc1ccccn1	–	> 1050 µM	42.7 µM
O=S1(=O)C[C@@H](NCc2ccccc2)[C@H](NCc2ccccc2)C1	–	> 200 µM	> 200 µM
O=C(/C=C/c1ccc(Cl)cc1)NC1C=Nc2ccc([N+](=O)[O-])cc2NC1=O (centres undefined)	–	> 200 µM	> 200 µM
O=C1NC(N/N=C\C(O)C(O)C(O)C(O)CO)=N/C1=C/c1ccc(Cl)cc1 (centres undefined)	–	> 200 µM	61.7 µM and 37.2 µM
CCOC(=O)c1c(-c2cc(OC)c(OC)c(OC)c2)csc1NC(=O)c1ccccc1	–	> 200 µM	12.6 µM
Cc1cc2c(cc1C)C(=O)C1(C2)Cc2cc3c(cc2C1=O)CCC3 (centres undefined)	–	> 100 µM	> 100 µM
Cc1cc(Cl)ccc1NC(=O)C1C(=O)C(=O)N(c2ccc(Cl)cc2C)C1=O (centres undefined)	inactive	–	–
O=C(Nc1cc2c(oc1=O)CCCCC2)c1ccccc1	–	> 200 µM	> 200 µM
